Results reported in the NIST ThermoML archive (doi:10.1016/j.jct.2011.08.016).

Experiment: xn = mol fraction of the nth substance listed
Conditions: Liquid, Vibrating tube method

CCCCCCCCCC [decane] + CCCCCCCC
Conditions | mass density [kg/m3]
363.03 K, 7000 kPa, x2 = 0.0616 | 682.5
363.03 K, 8000 kPa, x2 = 0.0616 | 683.6
363.03 K, 9000 kPa, x2 = 0.0616 | 684.68
363.03 K, 10000 kPa, x2 = 0.0616 | 685.7
363.03 K, 10990 kPa, x2 = 0.0616 | 686.75
363.03 K, 12000 kPa, x2 = 0.0616 | 687.8
363.03 K, 13000 kPa, x2 = 0.0616 | 688.75
363.03 K, 14000 kPa, x2 = 0.0616 | 689.77
363.03 K, 15000 kPa, x2 = 0.0616 | 690.77
363.03 K, 16000 kPa, x2 = 0.0616 | 691.73
363.03 K, 17000 kPa, x2 = 0.0616 | 692.68
363.03 K, 18000 kPa, x2 = 0.0616 | 693.63
363.03 K, 19000 kPa, x2 = 0.0616 | 694.55
363.03 K, 20000 kPa, x2 = 0.0616 | 695.46
363.03 K, 21000 kPa, x2 = 0.0616 | 696.37
363.03 K, 22000 kPa, x2 = 0.0616 | 697.23
363.03 K, 23000 kPa, x2 = 0.0616 | 698.12
363.03 K, 24000 kPa, x2 = 0.0616 | 699
363.03 K, 25000 kPa, x2 = 0.0616 | 699.81
363.05 K, 1000 kPa, x2 = 0.2801 | 670.18
363.05 K, 2000 kPa, x2 = 0.2801 | 671.39
363.05 K, 3000 kPa, x2 = 0.2801 | 672.48
363.05 K, 4000 kPa, x2 = 0.2801 | 673.67
363.05 K, 5000 kPa, x2 = 0.2801 | 674.81
363.05 K, 6000 kPa, x2 = 0.2801 | 675.97
363.05 K, 7000 kPa, x2 = 0.2801 | 677.07
363.05 K, 8000 kPa, x2 = 0.2801 | 678.19
363.05 K, 9000 kPa, x2 = 0.2801 | 679.28
363.05 K, 10000 kPa, x2 = 0.2801 | 680.35
363.05 K, 10990 kPa, x2 = 0.2801 | 681.42
363.05 K, 12000 kPa, x2 = 0.2801 | 682.49
363.05 K, 13000 kPa, x2 = 0.2801 | 683.53
363.05 K, 14000 kPa, x2 = 0.2801 | 684.56
363.05 K, 15000 kPa, x2 = 0.2801 | 685.57
363.05 K, 16000 kPa, x2 = 0.2801 | 686.57
363.05 K, 17000 kPa, x2 = 0.2801 | 687.56
363.05 K, 18000 kPa, x2 = 0.2801 | 688.51
363.05 K, 19000 kPa, x2 = 0.2801 | 689.47
363.05 K, 20000 kPa, x2 = 0.2801 | 690.38
363.05 K, 21000 kPa, x2 = 0.2801 | 691.33
363.05 K, 22000 kPa, x2 = 0.2801 | 692.19
363.05 K, 23000 kPa, x2 = 0.2801 | 693.06
363.05 K, 24000 kPa, x2 = 0.2801 | 693.94
363.05 K, 25000 kPa, x2 = 0.2801 | 694.78
363.07 K, 1000 kPa, x2 = 0.7736 | 654.79
363.07 K, 1000 kPa, x2 = 0.9623 | 647.67
363.07 K, 2000 kPa, x2 = 0.7736 | 656.13
363.07 K, 2000 kPa, x2 = 0.9623 | 649.03
363.07 K, 3000 kPa, x2 = 0.7736 | 657.39
363.07 K, 3000 kPa, x2 = 0.9623 | 650.38
363.07 K, 4000 kPa, x2 = 0.7736 | 658.68
363.07 K, 4000 kPa, x2 = 0.9623 | 651.7
363.07 K, 5000 kPa, x2 = 0.7736 | 659.92
363.07 K, 5000 kPa, x2 = 0.9623 | 652.98
363.07 K, 6000 kPa, x2 = 0.7736 | 661.18
363.07 K, 6000 kPa, x2 = 0.9623 | 654.25
363.07 K, 7000 kPa, x2 = 0.7736 | 662.38
363.07 K, 7000 kPa, x2 = 0.9623 | 655.52
363.07 K, 8000 kPa, x2 = 0.7736 | 663.57
363.07 K, 8000 kPa, x2 = 0.9623 | 656.76
363.07 K, 9000 kPa, x2 = 0.7736 | 664.75
363.07 K, 9000 kPa, x2 = 0.9623 | 658
363.07 K, 10000 kPa, x2 = 0.7736 | 665.92
363.07 K, 10000 kPa, x2 = 0.9623 | 659.23
363.07 K, 10990 kPa, x2 = 0.7736 | 667.06
363.07 K, 10990 kPa, x2 = 0.9623 | 660.42
363.07 K, 12000 kPa, x2 = 0.7736 | 668.19
363.07 K, 12000 kPa, x2 = 0.9623 | 661.58
363.07 K, 13000 kPa, x2 = 0.7736 | 669.32
363.07 K, 13000 kPa, x2 = 0.9623 | 662.75
363.07 K, 14000 kPa, x2 = 0.7736 | 670.41
363.07 K, 14000 kPa, x2 = 0.9623 | 663.87
363.07 K, 15000 kPa, x2 = 0.7736 | 671.49
363.07 K, 15000 kPa, x2 = 0.9623 | 664.99
363.07 K, 16000 kPa, x2 = 0.7736 | 672.56
363.07 K, 16000 kPa, x2 = 0.9623 | 666.07
363.07 K, 17000 kPa, x2 = 0.7736 | 673.6
363.07 K, 17000 kPa, x2 = 0.9623 | 667.17
363.07 K, 18000 kPa, x2 = 0.7736 | 674.63
363.07 K, 18000 kPa, x2 = 0.9623 | 668.2
363.07 K, 19000 kPa, x2 = 0.7736 | 675.61
363.07 K, 19000 kPa, x2 = 0.9623 | 669.26
363.07 K, 20000 kPa, x2 = 0.7736 | 676.63
363.07 K, 20000 kPa, x2 = 0.9623 | 670.29
363.07 K, 21000 kPa, x2 = 0.7736 | 677.57
363.07 K, 21000 kPa, x2 = 0.9623 | 671.3
363.07 K, 22000 kPa, x2 = 0.7736 | 678.47
363.07 K, 22000 kPa, x2 = 0.9623 | 672.27
363.07 K, 23000 kPa, x2 = 0.7736 | 679.43
363.07 K, 23000 kPa, x2 = 0.9623 | 673.14
363.07 K, 24000 kPa, x2 = 0.7736 | 680.34
363.07 K, 24000 kPa, x2 = 0.9623 | 674.08
363.07 K, 25000 kPa, x2 = 0.7736 | 681.28
363.07 K, 25000 kPa, x2 = 0.9623 | 674.98
